# “And” between values parts separate entries of the source, which are not always exact repeats. Identical values can stand only once.
# Legend:
# [1] = tested on: MRSA; test: PET/CT in MRSA myositis murine model; type: in vivo, mice; conditions: for ratio of live/heat-killed S. aureus inoculated sites, in vivo: PET 80 min postinjection (mid time)
# Experimental: We next compared [^18F]-FNT and [^18F]-FMT PET in a S. aureus myositis model. […] To compare the in vivo detection sensitivity of [^18F]-FNT and [^18F]-FMT in a MRSA myositis model, we injected the left deltoid with live MRSA and the right deltoid with 10x heat-killed MRSA, respectively (Figure B).
# All animal procedures were conducted in accordance with UCSF institutional guidelines and were approved by the Institutional Animal Care and Use Committee (IACUC). Female CBA/J mice (9 and 11 weeks old) were used for the study. Pulmonary infection and bacterial myositis models were established based on previously published protocols. , For pulmonary infection, 50 μL of K. pneumoniae (5 × 10^6 CFU) or 10× heat-killed K. pneumoniae were administered intranasally under anesthesia 24 h prior to imaging using PET. After PET scans, infected lungs were homogenized in PBS and plated on LB agar. Plates were incubated overnight at 37 °C to quantify the bacterial burden. […] Immediately following all imaging studies, target tissues were harvested, and radioactivity was measured using a gamma counter.
# (§1) μPET/CT imaging was conducted using a nanoScan μPET/CT instrument (PET123S/CT1512, Mediso). Mice were anesthetized with 2% isoflurane/oxygen for intravenous administration of ^18F-tracers (∼5 MBq in 150 μL) via tail vein and maintained during data acquisition. PET data of uninfected mice were acquired in the list mode for 90 min, starting immediately after ^18F-tracer administration, followed by a CT scan. The PET data were reconstructed into three-dimensional volumes and coregistered with CT images using manufacturer-provided software in 53 dynamic frames (15 × 2 s, 6 × 5 s, 6 × 10 s, 4 × 30 s, 6 × 30 s, and 16 × 300 s). PET data of infected mice were acquired for 20 min, starting at 70 min postinjection of ^18F-tracer (mid time 80 min), followed by a CT scan. The list mode PET data were reconstructed into three-dimensional volumes in a single static frame. All PET scans were corrected for ^18F decay, dead time, and random coincidences and reconstructed into a 160 × 160 × 184 matrix with voxel size 0.8 mm using a three-dimensional ordered subject expectation maximization (OSEM) algorithm (40 iterations, 1 subset). Both attenuation and scatter corrections were applied to PET reconstructions using the coregistered CT. ROIs were drawn manually around the brain, lungs, liver, kidney, and urinary bladder using Amide software to generate image-derived TACs. For the estimation of blood pool radioactivity over time, ROIs were drawn on the left atrium. To estimate the plasma half-life of tracers, the TAC of the blood pool was fitted to a two-compartment model using a biexponential decay function: C t(t) = Ae ^–αt + Be ^ ‑βt , where C t(t) is the tracer concentration (% IDcc^–1) at time (t), A and B are the intercepts, and α and β are the distribution and elimination rate constants, respectively. , Quantitative uptake values are expressed as % IDcc^–1, representing the percent of the total injected dose per cubic centimeter. For the S. aureus myositis model, identical volume ROIs were drawn corresponding to the peak uptake of [^18F]-FNT at the live S. aureus inoculated site and heat-killed S. aureus inoculated site, respectively.
# [2] = tested on: K. pneumoniae; test: PET/CT in K. pneumoniae pneumonia murine model; type: in vivo, mice; conditions: for PET signal in heat-killed K. pneumoniae inoculated lungs: 10x heat-killed K. pneumoniae; for ex vivo infected/uninfected lung ratio: ex vivo gamma counting after PET; for ROI-derived infected/uninfected lung ratio: in vivo PET, 80 min postinjection (mid time), 24 h after intranasal K. pneumoniae
# Experimental: Given promising low background signals in uninfected mice, we further evaluated [^18F]-FNT and [^18F]-FMT in two different clinically relevant mouse models of lung and muscle infections. […] PET scanning was performed at 24 h postintranasal bacterial installation (Figure A). […] The ROI-derived infected/uninfected lung ratios of [^18F]-FDS, [^18F]-FMT, and [^18F]-FNT were approximately 3.2, 6.1, and 5.9-fold, respectively (Figure C), also supported by the ex vivo infected/uninfected lung ratio of [^18F]-FDS (∼1.6-fold), [^18F]-FMT (∼5.7-fold), and [^18F]-FNT (∼5.7-fold) (Figure D). Post-PET scans, infected lungs were harvested to determine colony forming units (CFUs). No significant differences in bacterial counts were observed among [^18F]-FDS, [^18F]-FMT, and [^18F]-FNT (Figure E). To confirm radiotracer specificity, we also evaluated mice inoculated with 10x heat-killed K. pneumoniae into lungs (Supporting Information Figure S5A–C).
# All animal procedures were conducted in accordance with UCSF institutional guidelines and were approved by the Institutional Animal Care and Use Committee (IACUC). Female CBA/J mice (9 and 11 weeks old) were used for the study. Pulmonary infection and bacterial myositis models were established based on previously published protocols. , For pulmonary infection, 50 μL of K. pneumoniae (5 × 10^6 CFU) or 10× heat-killed K. pneumoniae were administered intranasally under anesthesia 24 h prior to imaging using PET. After PET scans, infected lungs were homogenized in PBS and plated on LB agar. Plates were incubated overnight at 37 °C to quantify the bacterial burden. For the bacterial myositis model, mice were intramuscularly injected with either 1 × 10^6 CFUs of live S. aureus (MSSA or MRSA) or 1 × 10^7 CFUs of heat-killed bacteria (50 μL) into the left and right deltoid muscles, respectively, 10 h prior to imaging using PET. Immediately following all imaging studies, target tissues were harvested, and radioactivity was measured using a gamma counter.
# as §1, with “For the S. aureus myositis model, identical volume ROIs were drawn corresponding to the peak uptake of [^18F]-FNT at the live S. aureus inoculated site and heat-killed S. aureus inoculated site, respectively.” left out
SMILES,"ratio of live/heat-killed S. aureus inoculated sites, in vivo ([1]; MRSA myositis) [fold]","ratio of live/heat-killed S. aureus inoculated sites, ex vivo ([1]; MRSA myositis, ex vivo analysis) [fold]",PET signal in heat-killed K. pneumoniae inoculated lungs [2],ex vivo infected/uninfected lung ratio [2] [fold],ROI-derived infected/uninfected lung ratio [2],"uptake at heat-killed sites, dynamic PET ([1]; by 70 min postinjection)","PET signal at live MRSA inoculated deltoid, 10^4 CFU ([1]; inoculum 10^4 CFU, not significant vs uninfected controls (P = 0.2187))",PET signal at sites inoculated with heat-killed MRSA ([1]; static PET/CT 80 min postinjection (mid time))
"OC[C@@H](O)[C@@H](O[C@H]1O[C@H](CO)[C@@H](O)[C@H](O)[C@H]1O)[C@H](O)[C@@H]([18F])CO [[18F]FMT, 2-deoxy-2-[18F]fluoro-D-maltitol]",6,2.7,No visible signal,~5.7,~6 fold and ~6.1 fold,–,–,–
"OC[C@@H](O)[C@@H](O)[C@H](O[C@H]1O[C@H](CO)[C@@H](O)[C@H](O)[C@H]1O)[C@@H]([18F])CO [[18F]FNT, 2-deoxy-2-[18F]fluoro-D-nigeritol]",~28,–,No visible signal,~5.7,~6 fold and ~5.9 fold,negligible,negligible signals,no detectable signal

# — article PMC12728616, “Regioselective Glycosylation of Fluorine-18-Labeled Sorbitol for Enhanced Bacterial Detection In Vivo Using PET” (JACS Au, 2025)
